Measured values taken from BindingDB's records for patent US20250091994 (Kobe University, 2025).

Molecular target: GTPase HRas [G12V] (Homo sapiens, UniProt P01112, G12V)
Experiment: In Vitro Ras-Raf Binding Inhibitory Activity Assay
Procedure: The in vitro Ras-Raf binding inhibitory activity of the compound of the present invention was evaluated by an ELISA method described below. GST-c-Raf-1 RBD diluted with a Ras-Raf binding buffer (50 mM Tris-HCl pH7.4, 150 mM NaCl, 5 mM MgCl2, 1 mM EDTA, and 1% Triton-X100) was added to each well of a glutathione-coated 96-well plate (Thermo Fisher Scientific.), and was incubated at 30° C. for 1 hour, to immobilize Raf on the well. The unbound free Raf was eliminated by washing the well with the Ras-Raf binding buffer three times. Subsequently, GTPTS-bound HRasG12V diluted with the Ras-Raf binding buffer and each compound solution (final DMSO concentration: 10%) were applied to each well, and the resulting mixture was then incubated at 30° C. for 1 hour, so that Ras and Raf were allowed to bind to each other. Thereafter, the plate was washed with the Ras-Raf binding buffer twice, and was then subjected to a blocking treatment at room temperature for 20 minutes, using TBS-Tween {10 mM Tris-HCl pH 7.4, 150 mM NaCl, and 0.05% (w/v) Tween-20}-5% (w/v) bovine serum albumin (BSA). After that, an anti-HRas antibody (C-20, Santa Cruz) or an anti-HRas antibody (259, Santa Cruz), which had been 1000 times diluted with TBS-Tween-5% BSA, was added to the reaction mixture, and incubated at room temperature for 1 hours. After the treatment with the primary antibody, the plate was washed with TBS-Tween-5% BSA three times, and a horseradish peroxidase-labeled secondary antibody against rabbit immunoglobulin G (GE Healthcare) of 1000 times diluted with TBS-Tween-5% BSA, was added to the plate, followed by incubation at room temperature for 1 hour. After the treatment with the secondary antibody, the plate was washed with TBS-Tween-5% BSA three times, and a substrate solution (TMB) was then added to the plate, followed by incubation at room temperature for 15 minutes for coloration. Finally, 2 M H2SO4 was added to stop color development (coloration reaction kit: Nacalai Tesque).

Chain of GTPase HRas [G12V] (P01112 whole entry G12V, looked up): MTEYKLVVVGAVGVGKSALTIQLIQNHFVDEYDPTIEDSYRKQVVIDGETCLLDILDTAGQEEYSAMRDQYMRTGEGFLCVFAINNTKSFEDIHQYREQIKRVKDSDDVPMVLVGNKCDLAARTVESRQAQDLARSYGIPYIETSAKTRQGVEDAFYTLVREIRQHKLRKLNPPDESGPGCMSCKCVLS

| IC50 | SMILES |
| --- | --- |
| 1.4 µM | CC(=O)N1CCN(c2cc(/C=C3/C(=O)c4ccccc4N3C(C)=O)nc3ccc(C(=O)N4CCOCC4)cc23)CC1 [US20250091994, Example 90] |
| 2.8 µM | CC(=O)N1C(=Cc2cc(-c3ccc(Oc4ccccc4)cc3)c3cc(C(=O)N4CCOCC4)ccc3n2)C(=O)c2ccccc21 [US20250091994, Example 92] |
| 0.66 µM | CC(=O)N1C(=Cc2cc(-c3cccnc3-c3ccccc3)c3cc(C(=O)N4CCOCC4)ccc3n2)C(=O)c2ccccc21 [US20250091994, Example 94] |
| 0.35 µM | COCC(O)CN1CCN(C(=O)c2ccc3nc(/C=C4/C(=O)c5ccccc5N4C(C)=O)cc(-c4ccccc4-c4ccccc4)c3c2)CC1 (configuration not stated) [US20250091994, Example 96] |
| 0.51 µM | CC(=O)N1C(=Cc2cc(-c3ccccc3-c3ccccc3)c3cc(C(=O)NC4CCN(C5COC5)CC4)ccc3n2)C(=O)c2ccccc21 [US20250091994, Example 97] |
| 0.78 µM | CC(=O)N1/C(=C/c2nc3cc(C(=O)N4CC(C)OC(C)C4)ccc3s2)C(=O)c2ccccc21 (configuration not stated) [US20250091994, Example 99] |
| 0.78 µM | CC(=O)N1/C(=C/c2nc3ccc(C(=O)N4CC(C)OC(C)C4)cc3s2)C(=O)c2ccccc21 (configuration not stated) [US20250091994, Example 101] |
| 10 µM | COc1cc(C=C2C(=O)c3ccc(F)cc3N2C(C)=O)ccc1OCC(=O)N1CCOCC1 [US20250091994, Example 103] |
| 9 µM | COc1cc(C=C2C(=O)c3c(F)cccc3N2C(C)=O)ccc1OCC(=O)N1CCOCC1 [US20250091994, Example 104] |
| 20 µM | COc1cc(C=C2C(=O)c3cccc(F)c3N2C(C)=O)ccc1OCC(=O)N1CCOCC1 [US20250091994, Example 105] |
| 4.1 µM | CC(=O)NCc1cccc2c1C(=O)/C(=C/c1ccc3cc(C(=O)N4CCOCC4)ccc3n1)N2C(C)=O [US20250091994, Example 106] |
| 2.6 µM | CC(=O)N1/C(=C/c2nc3ccc(/C=C/C(=O)N4CCOCC4)cc3s2)C(=O)c2ccccc21 [US20250091994, Example 108] |
| 0.46 µM | CC(=O)N1C(=Cc2nc3cc(/C=C/C(=O)N4CCOCC4)ccc3s2)C(=O)c2ccccc21 [US20250091994, Example 109] |
| 0.42 µM | CC(=O)N1/C(=C/c2nc3cc(/C=C/C(=O)N4CCOCC4)ccc3s2)C(=O)c2ccccc21 [US20250091994, Example 110] |
| 1 µM | CC(=O)N1/C(=C\c2cc(C(N)=O)c3cc(C(=O)N4CCOCC4)ccc3n2)C(=O)c2ccccc21 [US20250091994, Example 111] |
| 0.55 µM | CC(=O)N1/C(=C\c2cc(On3nnc4cccnc43)c3cc(C(=O)N4CCOCC4)ccc3n2)C(=O)c2ccccc21 [US20250091994, Example 112] |
| 0.68 µM | CC(=O)Nc1cc(/C=C2/C(=O)c3ccccc3N2C(C)=O)nc2ccc(C(=O)N3CCOCC3)cc12 [US20250091994, Example 113] |
| 29 µM | CC(=O)N1/C(=C\c2ccc3cc(C(=O)N4CCC(c5ccccc5)CC4)ccc3n2)C(=O)c2ccccc21 [US20250091994, Example 114] |
| 8.4 µM | COCCN1CCN(C(=O)c2ccc3nc(/C=C4/C(=O)c5ccccc5N4C(C)=O)ccc3c2)CC1 [US20250091994, Example 116] |
| 1.1 µM | CC(=O)N1/C(=C/c2cc(-c3ccnc4ccccc34)c3cc(C(=O)N4CCOCC4)ccc3n2)C(=O)c2ccccc21 [US20250091994, Example 117] |
| 0.73 µM | CC(=O)N1C(=Cc2cc(-c3cccc4ccccc34)c3cc(C(=O)N4CCOCC4)ccc3n2)C(=O)c2ccccc21 [US20250091994, Example 118] |
| 2.9 µM | COC1(CN2CCN(C(=O)c3ccc4nc(/C=C5/C(=O)c6ccccc6N5C(C)=O)ccc4c3)CC2)COC1 [US20250091994, Example 119] |
| 2.2 µM | COC1(COC(=O)N2CCN(C(=O)c3ccc4nc(/C=C5/C(=O)c6ccccc6N5C(C)=O)ccc4c3)CC2)COC1 [US20250091994, Example 120] |
| 8.5 µM | CCOC(=O)N1C(=Cc2ccc(OCC(=O)N3CCOCC3)c(OC)c2)C(=O)c2ccccc21 [US20250091994, Example 123] |
| 2.8 µM | COc1cc(C=C2C(=O)c3ccccc3N2C(C)=O)ccc1OCCO [US20250091994, Example 125] |
| 1.4 µM | CC(=O)N1C(=Cc2ccc3cc(OCCO)ccc3n2)C(=O)c2ccccc21 [US20250091994, Example 126] |

| IC50 | SMILES |
| --- | --- |
| 2.1 µM | CC(=O)N1/C(=C\c2ccc3cc(C(=O)O)ccc3n2)C(=O)c2ccccc21 [US20250091994, Example 127] |
| 1.5 µM | CC(=O)N1/C(=C\c2ccc3cc(C(=O)N4CCC(C(=O)O)CC4)ccc3n2)C(=O)c2ccccc21 [US20250091994, Example 129] |
| 1.5 µM | CC(=O)N1C(=Cc2ccc3cc(CNC4CCOCC4)ccc3n2)C(=O)c2ccccc21 [US20250091994, Example 131] |
| 0.79 µM | CC(=O)N1/C(=C/c2nc3ccc(CNC4CCOCC4)cc3s2)C(=O)c2ccccc21 [US20250091994, Example 135] |
| 6 µM | CC(=O)N1C(=Cc2ccc3cc(C(=O)N4CCNCC4)ccc3n2)C(=O)c2ccccc21 [US20250091994, Example 139] |
| 1.3 µM | CC(=O)N1/C(=C\c2cc(-c3ccccc3-c3ccccc3)c3cc(C(=O)N4CCN(C)CC4)ccc3n2)C(=O)c2ccccc21 [US20250091994, Example 140] |
| 0.8 µM | CC(=O)N1/C(=C\c2cc(-c3ccccc3-c3ccccc3)c3cc(C(=O)N4CCC(C(=O)O)CC4)ccc3n2)C(=O)c2ccccc21 [US20250091994, Example 142] |
| 0.8 µM | CC(=O)N1CCc2cc(-c3cc(/C=C4/C(=O)c5ccccc5N4C(C)=O)nc4ccc(C(=O)N5CCOCC5)cc34)ccc2C1 [US20250091994, Example 144] |
| 0.6 µM | CC(=O)N1/C(=C/c2cc(-c3cccc4[nH]ncc34)c3cc(C(=O)N4CCOCC4)ccc3n2)C(=O)c2ccccc21 [US20250091994, Example 145] |
| 0.5 µM | CC(=O)N1CCc2c(cccc2-c2cc(/C=C3/C(=O)c4ccccc4N3C(C)=O)nc3ccc(C(=O)N4CCOCC4)cc23)C1 [US20250091994, Example 146] |
| 0.3 µM | CC(=O)N1/C(=C/c2cc(-c3cccc(-c4cn[nH]c4)c3)c3cc(C(=O)N4CCOCC4)ccc3n2)C(=O)c2ccccc21 [US20250091994, Example 148] |
| 0.3 µM | CC(=O)N1/C(=C\c2cc(-c3cccc(-c4cnn(C)c4)c3)c3cc(C(=O)N4CCOCC4)ccc3n2)C(=O)c2ccccc21 [US20250091994, Example 149] |
| 2.4 µM | CC(=O)N1C(=Cc2cc(-c3ccc(-c4ccccc4)cc3)c3cc(C(=O)N4CCN(C5COC5)CC4)ccc3n2)C(=O)c2ccccc21 [US20250091994, Example 162] |
| 0.4 µM | CC(=O)N1C(=Cc2cc(-c3ccc4c(c3)CCN(C)C4)c3cc(C(=O)N4CCOCC4)ccc3n2)C(=O)c2ccccc21 [US20250091994, Example 173] |
| 0.8 µM | CC(=O)N1/C(=C\c2cc(-c3cnn(C)c3)c3ccccc3n2)C(=O)c2ccccc21 [US20250091994, Example 177] |
| 0.8 µM | CCn1cc(-c2cc(/C=C3/C(=O)c4ccccc4N3C(C)=O)nc3ccc(C(=O)N4CCOCC4)cc23)cn1 [US20250091994, Example 178] |
| 1 µM | CC(=O)N1CCCC(c2cc(/C=C3/C(=O)c4ccccc4N3C(C)=O)nc3ccc(C(=O)N4CCOCC4)cc23)C1 (configuration not stated) [US20250091994, Example 179] |
| 1.4 µM | CC(=O)N1C(=Cc2cc(CN3CCOCC3=O)c3ccccc3n2)C(=O)c2ccccc21 [US20250091994, Example 183] |
| 0.9 µM | CC(=O)N1/C(=C\c2cc(-c3ccncc3)c3cc(C(=O)N4CCOCC4)ccc3n2)C(=O)c2ccccc21 [US20250091994, Example 184] |
| 1.6 µM | CC(=O)N1C(=Cc2cc(-c3cncnc3)c3cc(C(=O)N4CCOCC4)ccc3n2)C(=O)c2ccccc21 [US20250091994, Example 185] |
| 0.5 µM | CC(=O)N1CCc2cc(-c3cc(/C=C4/C(=O)c5ccccc5N4C(C)=O)nc4ccccc34)ccc2C1 [US20250091994, Example 187] |
| 1.5 µM | CC(=O)N1/C(=C\c2cc(-c3ncccn3)c3cc(C(=O)N4CCOCC4)ccc3n2)C(=O)c2ccccc21 [US20250091994, Example 189] |
| 0.9 µM | CC(=O)N1C(=Cc2cc(-c3ccc4c(c3)CCNC4=O)c3ccccc3n2)C(=O)c2ccccc21 [US20250091994, Example 190] |
| 0.8 µM | CC(=O)N1/C(=C\c2cc(-c3cn(C)cn3)c3cc(C(=O)N4CCOCC4)ccc3n2)C(=O)c2ccccc21 [US20250091994, Example 192] |
| 0.7 µM | CC(=O)N1CCc2c(cccc2-c2cc(/C=C3/C(=O)c4ccccc4N3C(C)=O)nc3ccccc23)C1 [US20250091994, Example 193] |
| 0.8 µM | CC(=O)N1/C(=C\c2cc(-c3ccccc3-c3cnn(C)c3)c3cc(C(=O)N4CCOCC4)ccc3n2)C(=O)c2ccccc21 [US20250091994, Example 196] |
